Experimental data: patent US20150087641A1, “HETEROCYCLIC CGRP RECEPTOR ANTAGONISTS” (Merck Sharp & Dohme Corp., priority 2012, published 2015)

Target: T1, recombinant human CL receptor/RAMP1 (Homo sapiens, UniProt O60894+Q16602)
T1 construct: expressed in transfected cells
Assay: Recombinant receptor functional assay (cAMP, HTRF)
Assay type: cell-based
Details: HEK 293 cells expressing human CL receptor/RAMP1; antagonism of 1.2 nM human α-CGRP-stimulated cAMP
Description: RECOMBINANT RECEPTOR: Human CL receptor (Genbank accession number L76380) was subcloned into the expression vector pIREShyg2 (BD Biosciences Clontech) as a 5′NheI and 3′ PmeI fragment. Human RAMP1 (Genbank accession number AJ001014) was subcloned into the expression vector pIRESpuro2 (BD Biosciences Clontech) as a 5′NheI and 3′NotI fragment. HEK 293 cells (human embryonic kidney cells; ATCC #CRL-1573) were cultured in DMEM with 4.5 g/L glucose, 1 mM sodium pyruvate and 2 mM glutamine supplemented with 10% fetal bovine serum (FBS), 100 units/mL penicillin and 100 μg/mL streptomycin, and maintained at 37° C. and 95% humidity. Cells were subcultured by treatment with 0.25% trypsin with 0.1% EDTA in HBSS. Stable cell line generation was accomplished by co-transfecting 10 μg of DNA with 30 μg Lipofectamine 2000 (Invitrogen) in 75 cm^2 flasks. CL receptor and RAMP1 expression constructs were co-transfected in equal amounts. […]
RECOMBINANT RECEPTOR FUNCTIONAL ASSAY: Cells were resuspended in DMEM/F12 (Hyclone) supplemented with 1 g/L BSA and 300 μM isobutyl-methylxanthine. […] Raw data were transformed into concentration of cAMP using a standard curve then dose response curves were plotted and inflection point (IP) values were determined.

T1 sequence (Q16602 23-461): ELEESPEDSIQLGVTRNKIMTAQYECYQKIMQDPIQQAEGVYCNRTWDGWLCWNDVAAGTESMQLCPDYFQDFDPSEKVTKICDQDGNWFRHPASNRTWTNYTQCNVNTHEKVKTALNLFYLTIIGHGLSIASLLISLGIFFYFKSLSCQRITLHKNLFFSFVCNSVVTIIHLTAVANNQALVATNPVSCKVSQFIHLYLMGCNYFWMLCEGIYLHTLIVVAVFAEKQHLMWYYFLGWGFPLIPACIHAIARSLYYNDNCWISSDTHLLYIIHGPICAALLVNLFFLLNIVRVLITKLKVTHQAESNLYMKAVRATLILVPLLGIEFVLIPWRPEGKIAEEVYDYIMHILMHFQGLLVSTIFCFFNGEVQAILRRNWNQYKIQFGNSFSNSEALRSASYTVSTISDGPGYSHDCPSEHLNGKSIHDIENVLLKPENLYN
T1 sequence (O60894 27-148): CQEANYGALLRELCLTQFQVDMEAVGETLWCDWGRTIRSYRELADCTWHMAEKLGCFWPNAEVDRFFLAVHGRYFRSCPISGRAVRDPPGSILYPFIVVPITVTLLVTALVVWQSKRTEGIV

IC50: 89 nM
SMILES: C[C@@H]1[C@H](c2ccccc2)C[C@H](NC(=O)c2ccc3c(c2)CC2(C3)OC(=O)Nc3ncccc32)C(=O)N1CC(F)(F)F (stereo partly drawn) [Example 1, N-((3S,5S,6R)-6-Methyl-2-oxo-5-phenyl-1-(2,2,2-trifluoroethyl)piperidin-3-yl)-2′-oxo-1,1′,2′,3-tetrahydrospiro[indene-2,4′-pyrido[2,3-d][1,3]oxazine]-5-carboxamide]
